Target: SmJNK (S. mansoni c-Jun N-terminal kinase) (Schistosoma mansoni, UniProt A0A3Q0KT26)
Experiment: cellular thermal shift assay (CETSA), isothermal dose-response fingerprint in SmJNK-expressing Sf21 cells
Assay type: cell-based

Chain of SmJNK (S. mansoni c-Jun N-terminal kinase) (A0A3Q0KT26 entry or part of it): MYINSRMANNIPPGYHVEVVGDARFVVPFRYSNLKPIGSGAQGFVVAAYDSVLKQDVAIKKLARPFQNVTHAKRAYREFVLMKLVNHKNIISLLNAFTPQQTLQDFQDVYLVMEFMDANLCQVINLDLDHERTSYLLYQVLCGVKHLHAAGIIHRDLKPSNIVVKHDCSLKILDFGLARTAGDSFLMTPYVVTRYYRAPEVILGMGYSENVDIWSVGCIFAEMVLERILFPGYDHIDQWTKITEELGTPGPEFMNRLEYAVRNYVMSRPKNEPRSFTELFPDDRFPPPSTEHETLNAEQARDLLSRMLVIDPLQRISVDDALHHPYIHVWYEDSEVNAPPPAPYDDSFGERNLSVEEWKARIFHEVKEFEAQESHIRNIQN

Oc1c2ccccc2c2c3c(cccc13)N=N2 [SP600125]
Kd: 0.65 µM
